Experiments:
MEL cells [1] = assay: MEL cell erythroid differentiation, marker mRNA by Real-Time PCR; format: cell-based, mouse
Experimental: MEL cells were a gift from Prof. N. Shaklai (Tel Aviv University, Israel). Cells were cultured at 37° C. in 5% CO2 incubator in RPMI-1640 medium supplemented with 10% fetal calf serum, 2 mM L-glutamine, 100 U/ml penicillin, 0.1 mg/ml streptomycin and 12.5 U/ml nystatin (Biological Industries, Beit Haemek, Israel). To induce erythroid differentiation, 2% DMSO (v/v, Sigma, St. Louis, Mo., USA) was added for 4 days.
2 ADNP shRNA clones (sh68 and sh71, Sigma) were used for mouse ADNP (NM_009628) silencing in MEL cells, as before (Mandel et al., 2008, J Mol Neurosci 35, 127-141). […] For mouse ADNP2 (NM_175028) silencing, a mixture of 2 stealth small interfering RNA (siRNA) duplexes (Invitrogen, Carlsbad, Calif., USA) was used.
Transfections were performed using Lipofectamine-2000 (Invitrogen). 6 hours after transfection, 2% DMSO was added to the cells for 4 days in order to induce erythroid differentiation. On the 4th day, cells were harvested, RNA was extracted and expression levels of ADNP, ADNP2, band3, β-globin, Brg1 and c-kit were evaluated.
Total RNA from MEL cells was extracted by the RNeasy Plus Mini Kit (Qiagen, Hilden, Germany). RNA integrity was determined by fractionation on 1% agarose gel and staining with ethidium bromide. RNA quantity (OD260) was determined by NanoDrop spectrophotometer (NanoDrop Technologies, Wilmington, Del., USA).
Samples with the same amount of total RNA were used to synthesize single-strand cDNA employing the Applied Biosystems High Capacity cDNA Reverse Transcription Kit (Applied Biosystems, Foster City, Calif., USA) and random hexamers primers as before (Dresner et al., 2010, supra). Primer pairs (see Table 1) were designed using the primer 3 web interface (website: frodo.wi.mit.edu/primer3/) and synthesized by Sigma-Genosys (The Woodlands, Tex., USA). To avoid amplification of contaminating genomic DNA, primers were designed to exon-exon junction. […]

MEL cells [2] = assay: Growth of MEL cells during differentiation (viable cell counts); format: cell-based, mouse; conditions: 2% DMSO vs ND cells
Experimental: FIG. 4: ADNP and ADNP2 are required for mouse erythroid differentiation. (A-C) MEL cells were differentiated with 2% DMSO for 4 days and compared to non-differentiated (ND) cells incubated for the same time period. Results are means±S.E.M analyzed by student's t-test (*p<0.05, **p<0.01, ***p<0.001). (A) The picture depicts the red pellet (Hb) of differentiated (D) cells compared to the white pellet of ND cells. (B) mRNA expression levels of β-globin, band3 and c-kit in D versus ND MEL cells. 4 experiments were performed, each in duplicates. Data is presented in logarithmic scale as fold change from the expression level in the ND state. (C) Growth curves of D and ND MEL cells. Results are % of the number of cells at plating (100%). […] Real-Time PCR analysis determined ADNP, ADNP2, β-globin, band3 and c-kit expression levels. […] Results, means±S.E.M were analyzed using student's t-test (*p<0.05, **p<0.01, ***p<0.001, relative to control cells, transfected with non-specific shRNA/siRNA sequences). (F+G) MEL cells were transfected with ADNP/ADNP2 shRNA/siRNA respectively, and viable cells were counted every 24 hrs during 4 days differentiation process with 2% DMSO. […] Results are presented as % from the number of cells at plating (100%), and analyzed using student's t-test (**p<0.01, relative to number of control cells, transfected with non-specific siRNA or shRNA sequences). […]

zebrafish embryos [3] = assay: Morpholino knockdown in zebrafish embryos, observation of blood and morphology; format: in vivo; conditions: for cardiac edema / smaller head and eyes: MO-injected embryos; for morphology and development: MO-injected embryos vs control; for smaller head and eyes: FIG. 2C; for blood colour: at 72 hpf, vs red blood of control embryos; for blood cells in circulation: starting from 28 hpf, vs control-MO injected embryos
Experimental: (§1) Gene knockdown experiments were performed using morpholino-modified antisense oligonucleotides (MO's, Gene Tools, Philomath, Oreg., USA). MO's were injected into wild type embryos, immediately after fertilization (2 nl, 1-2 mM). This was followed by a daily monitoring of the embryos for 10 days. MO's sequences were chosen through the Gene Tools oligonucleotide design service. A splicing MO, directed to intron3-exon4 boundary, was designed to block adnp1a (adnp1a-MO, 5′-[…]-3′). The efficiency of the adnp1a splicing MO was evaluated by RT-PCR. Translation MO's were designed to block adnp1b, adnp2a and adnp2b (adnp1 b-MO, 5′-[…]-3′; adnp2a-MO: 5′-[…]-3′; adnp2b-MO: 5′-[…]-3′). BLAST analysis was performed to verify that the MO's were not predicted to bind gene sequences other than their targets, and that their target sequence was not conserved among the other zebrafish adnp1 and adnp2 genes. Gene-Tools standard control-MO, which has not been reported to have other targets or generate any phenotypes, was used as a negative control (5-[…]-3′). Injections were repeated in at least 4 independent experiments for each MO.
For adnp2a-MO injected embryos, blood circulation was evaluated at 48 hpf. For the 3 other MO's, circulation was examined at 72 hpf when red blood is easily seen. Based on observation, embryos were divided to have normal blood cells, no blood cells or hypochromic and/or fewer blood cells.

zebrafish embryos [4] = assay: O-dianisidine staining of Hb in whole MO-injected embryos; format: in vivo; conditions: for Hemoglobin (Hb) staining, Hb content: 48 hpf and 72 hpf; for O-dianisidine staining: 48 hpf, vs control embryos (legend FIG. 2F)
Experimental: as §1
Hb activity was detected in whole embryos by performing o-dianisidine staining as described (Iuchi and Yamamoto, 1983, J Exp Zool 226, 409-417).

zebrafish embryos [5] = assay: Whole-mount in situ hybridization (WMISH) of hematopoietic markers in MO-injected embryos; format: in vivo
Experimental: as §1
Transcripts of sci (NM_213237), lmo2 (NM_131111), gata1 (NM_131234), band3 (NM_198338), embryonic α-globin 1 (NM_182940), lys-C(NM_139180), l-plastin (NM_131320), ikaros (NM_130986), c-myb (NM_131266), irx7 (NM_131881), flk1 (NM_131472), cmlc2 (NM_131329), adnp1a (NM_001080015), adnp1b (XM—002666474), adnp2a (NM_001098265) and adnp2b (NM_001080013) were detected by WMISH using digoxygenin (DIG) labeled antisense RNA probes at a concentration of 1 ng/μl. Transcription of RNA probes was performed from pGEM-T Easy plasmids linearized before the coding sequence, using SP6 or T7 RNA polymerases (DIG RNA labeling kit, Roche Applied Science, Penzberg, Germany). Embryos at different developmental stages were fixed overnight in 4% paraformaldehyde and stored in 100% methanol. WMISH was performed as describe (Ziv et al., 2005, supra). Fixed embryos were then placed in 70% glycerol for observation and photography using a dissecting stereoscope (SZX12, Olympus) equipped with digital camera (DP70, Olympus). In each experiment, embryos hybridized with the same probe were stained under the same conditions and for the same time period using identical microscopic and camera settings.

[6] = 2% DMSO for 4 days vs non-differentiated cells

Molecule | cardiac edema (zebrafish embryos [3]) | morphology and development (zebrafish embryos [3]) | smaller head and eyes (zebrafish embryos [3]) | blood colour (zebrafish embryos [3]) | blood cells in circulation (zebrafish embryos [3]) | Hemoglobin (Hb) staining, Hb content (zebrafish embryos [4]) | O-dianisidine staining (zebrafish embryos [4]) | also measured
C[S+](C)[O-] [DMSO] |  |  |  |  |  |  |  | c-kit expression lower (MEL cells [1]; 2% DMSO for 4 days vs ND cells): 200 times; increase of band3 mRNA expression (MEL cells [1]; [6]): 10000 fold; increase of β-globin mRNA expression (MEL cells [1]; [6]): 1000 fold; growth rate of differentiating cells (MEL cells [2]): significant reduction
adnp1a-MO: splicing morpholino antisense oligonucleotide to intron3-exon4 boundary of zebrafish adnp1a, 5′-TAGTCCTGCAACATTTGAGAAACCA-3′ (all phosphorodiamidate morpholino (PMO)) | visible in some embryos | developmental delay, distorted tail morphology | 73 % of embryos | hypochromic | fewer blood cells in circulation | significant reduction in Hb content | Reduced staining | 
adnp1b-MO: translation-blocking morpholino to zebrafish adnp1b, 5′-TTGTTCACTGGGAGTTGAAACATTC-3′ (all phosphorodiamidate morpholino (PMO)) | visible in some embryos | developmental delay, distorted tail morphology | 92 % of embryos | hypochromic | fewer blood cells in circulation | significant reduction in Hb content | Reduced staining | 
adnp2a-MO: translation-blocking morpholino to zebrafish adnp2a, 5′-CACTGGAATCTGATACATTTTGCTC-3′ (all phosphorodiamidate morpholino (PMO)) | noticeable cardiac edema | no effect on the overall morphology |  |  |  | totally negative | No staining is visible | blood cells visible (zebrafish embryos [3]; between 33-48 hpf): no blood cells were evident; ectopic expression of band3 along the tail and yolk sinus (zebrafish embryos [5]; 4 dpf): 100 % of embryos; ectopic expression of gata1 along the tail and yolk sinus (zebrafish embryos [5]; 4 dpf): 86 % of embryos; gata1 expression normal in the ICM (zebrafish embryos [5]; 17-19 hpf): 100 % of embryos; lmo2 expression intact in the ICM (zebrafish embryos [5]; 17-19 hpf): 100 % of embryos; scl expression intact in the ICM (zebrafish embryos [5]; 17-19 hpf): 100 % of embryos; band3 expression almost absent (zebrafish embryos [5]; 28 hpf): 83 % of embryos; embryonic α-globin 1 expression significantly reduced (zebrafish embryos [5]; 28 hpf): 96 % of embryos; gata1 expression dramatically reduced (zebrafish embryos [5]; 28 hpf): 90 % of embryos; l-plastin expression intact (zebrafish embryos [5]; 28 hpf): 100 % of embryos; lys-C expression intact (zebrafish embryos [5]; 28 hpf): 100 % of embryos; band3 expression almost absent (zebrafish embryos [5]; 48 hpf): 97 % of embryos
adnp2b-MO: translation-blocking morpholino to zebrafish adnp2b, 5′-ACCTTTTACTGGAAACTGGTACATG-3′ (all phosphorodiamidate morpholino (PMO)) |  | no developmental delay or major morphological changes |  |  |  |  | Reduced staining | morphology (zebrafish embryos [3]; injection of higher doses of MO): distorted morphology

— patent US20130053320A1, “TREATMENT OF ANEMIA BY ADNP AND ADNF POLYPEPTIDES” (Ramot at Tel-Aviv University, Ltd., priority 2010, published 2013)
